Experimental data from ChEMBL document CHEMBL4507261, “Data for DCP probe A-192621” (2021).

What was measured:
[1] = biological target: Angiotensin-converting enzyme (Homo sapiens) (UniProt P12821); assay: ACE (h) Eurofins-Cerep enzyme and uptake assay; conditions: Compound concentration 10.0 uM
[2] = biological target: Calcitonin-gene-related peptide receptor, CALCRL/RAMP1 (Homo sapiens) (UniProt O60894+Q16602); assay: CGRP (h) Eurofins-Cerep binding assay; assay type: protein-complex assay; set-up: ligand concentration 0.03 nM; conditions: filed as agonist, Compound concentration 10.0 uM
[3] = biological target: Motilin receptor (Homo sapiens) (UniProt O43193); assay: motilin (h Eurofins-Cerep binding assay; set-up: ligand concentration 0.05 nM; conditions: filed as agonist, Compound concentration 10.0 uM
[4] = biological target: 5-hydroxytryptamine receptor 4 (Homo sapiens) (UniProt Q13639); assay: 5-HT4 e (h) Eurofins-Cerep binding assay; set-up: ligand concentration 0.3 nM; conditions: filed as antagonist, Compound concentration 10.0 uM
[5] = biological target: Sigma non-opioid intracellular receptor 1 (Homo sapiens) (UniProt Q99720); assay: sigma (non-selective) (h) Eurofins-Cerep binding assay; set-up: ligand concentration 10 nM; conditions: filed as agonist, Compound concentration 10.0 uM
[6] = biological target: Estrogen receptor (Homo sapiens) (UniProt P03372); assay: Estrogen ER alpha (h) Eurofins-Cerep binding assay; set-up: ligand concentration 0.5 nM; conditions: filed as agonist, Compound concentration 10.0 uM
Rattus norvegicus = organism: Rattus norvegicus; assay: SKCa channel Eurofins-Cerep binding assay; set-up: ligand concentration 0.007 nM; conditions: filed as antagonist, Compound concentration 10.0 uM
[7] = system: Tyrosine-protein kinase ABL1 (Homo sapiens), P00519 [F317I]; conditions: Compound concentration 1000.0 nM
[8] = system: Tyrosine-protein kinase ABL1 (Homo sapiens), P00519 [F317L]; conditions: Compound concentration 1000.0 nM
[9] = biological target: Activin receptor type-2A (Homo sapiens) (UniProt P27037); conditions: Compound concentration 1000.0 nM
[10] = biological target: Mitogen-activated protein kinase kinase kinase 6 (Homo sapiens) (UniProt O95382); conditions: Compound concentration 1000.0 nM
[11] = biological target: Calcium/calmodulin-dependent protein kinase type IV (Homo sapiens) (UniProt Q16566); conditions: Compound concentration 1000.0 nM
[12] = biological target: Epidermal growth factor receptor (Homo sapiens) (UniProt P00533); conditions: Compound concentration 1000.0 nM
[13] = system: Epidermal growth factor receptor (Homo sapiens), P00533 [UNDEFINED MUTATION]; conditions: Compound concentration 1000.0 nM
[14] = biological target: Eukaryotic translation initiation factor 2-alpha kinase 1 (Homo sapiens) (UniProt Q9BQI3); conditions: Compound concentration 1000.0 nM
[15] = biological target: Ephrin type-B receptor 3 (Homo sapiens) (UniProt P54753); conditions: Compound concentration 1000.0 nM
Sequence of Ephrin type-B receptor 3 (Homo sapiens) (P54753 whole entry): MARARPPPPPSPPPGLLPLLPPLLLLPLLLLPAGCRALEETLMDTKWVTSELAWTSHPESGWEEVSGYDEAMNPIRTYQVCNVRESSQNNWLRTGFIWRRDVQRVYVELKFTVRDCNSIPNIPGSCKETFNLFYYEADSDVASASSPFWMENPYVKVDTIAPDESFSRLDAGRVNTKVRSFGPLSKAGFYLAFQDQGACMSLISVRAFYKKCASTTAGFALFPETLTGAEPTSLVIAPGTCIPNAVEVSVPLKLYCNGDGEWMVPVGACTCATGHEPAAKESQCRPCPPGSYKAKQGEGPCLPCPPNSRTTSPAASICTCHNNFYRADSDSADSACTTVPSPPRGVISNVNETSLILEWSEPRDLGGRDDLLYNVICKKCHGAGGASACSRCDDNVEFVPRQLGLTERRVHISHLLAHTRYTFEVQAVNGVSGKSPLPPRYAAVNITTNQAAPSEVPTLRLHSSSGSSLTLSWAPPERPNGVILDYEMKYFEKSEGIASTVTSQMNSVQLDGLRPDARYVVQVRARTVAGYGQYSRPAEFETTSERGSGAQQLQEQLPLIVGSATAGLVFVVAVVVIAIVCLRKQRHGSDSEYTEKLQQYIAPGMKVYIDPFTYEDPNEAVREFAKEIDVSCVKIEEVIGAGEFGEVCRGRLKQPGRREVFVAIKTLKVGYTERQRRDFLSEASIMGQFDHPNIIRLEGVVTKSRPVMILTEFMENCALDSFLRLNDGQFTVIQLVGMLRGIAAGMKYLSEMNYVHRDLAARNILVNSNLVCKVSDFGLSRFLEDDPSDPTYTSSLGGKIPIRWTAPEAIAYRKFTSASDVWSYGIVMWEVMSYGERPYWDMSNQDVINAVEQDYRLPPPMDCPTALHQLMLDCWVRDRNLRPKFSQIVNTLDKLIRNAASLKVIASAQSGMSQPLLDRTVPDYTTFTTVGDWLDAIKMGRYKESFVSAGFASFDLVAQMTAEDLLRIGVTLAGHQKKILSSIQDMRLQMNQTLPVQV

[16] = biological target: Tyrosine-protein kinase Fer (Homo sapiens) (UniProt P16591); conditions: Compound concentration 1000.0 nM
[17] = biological target: Rhodopsin kinase GRK7 (Homo sapiens) (UniProt Q8WTQ7); conditions: Compound concentration 1000.0 nM
[18] = biological target: Homeodomain-interacting protein kinase 2 (Homo sapiens) (UniProt Q9H2X6); conditions: Compound concentration 1000.0 nM
[19] = biological target: Mitogen-activated protein kinase kinase kinase kinase 1 (Homo sapiens) (UniProt Q92918); conditions: Compound concentration 1000.0 nM
[20] = biological target: Insulin-like growth factor 1 receptor (Homo sapiens) (UniProt P08069); conditions: Compound concentration 1000.0 nM
[21] = biological target: Insulin receptor (Homo sapiens) (UniProt P06213); conditions: Compound concentration 1000.0 nM
[22] = biological target: Mitogen-activated protein kinase kinase kinase 15 (Homo sapiens) (UniProt Q6ZN16); conditions: Compound concentration 1000.0 nM
[23] = biological target: Mitogen-activated protein kinase kinase kinase kinase 4 (Homo sapiens) (UniProt O95819); conditions: Compound concentration 1000.0 nM
[24] = biological target: Serine/threonine-protein kinase MARK1 (Homo sapiens) (UniProt Q9P0L2); conditions: Compound concentration 1000.0 nM
[25] = biological target: Dual specificity mitogen-activated protein kinase kinase 5 (Homo sapiens) (UniProt Q13163); conditions: Compound concentration 1000.0 nM
Sequence of Dual specificity mitogen-activated protein kinase kinase 5 (Homo sapiens) (Q13163 whole entry): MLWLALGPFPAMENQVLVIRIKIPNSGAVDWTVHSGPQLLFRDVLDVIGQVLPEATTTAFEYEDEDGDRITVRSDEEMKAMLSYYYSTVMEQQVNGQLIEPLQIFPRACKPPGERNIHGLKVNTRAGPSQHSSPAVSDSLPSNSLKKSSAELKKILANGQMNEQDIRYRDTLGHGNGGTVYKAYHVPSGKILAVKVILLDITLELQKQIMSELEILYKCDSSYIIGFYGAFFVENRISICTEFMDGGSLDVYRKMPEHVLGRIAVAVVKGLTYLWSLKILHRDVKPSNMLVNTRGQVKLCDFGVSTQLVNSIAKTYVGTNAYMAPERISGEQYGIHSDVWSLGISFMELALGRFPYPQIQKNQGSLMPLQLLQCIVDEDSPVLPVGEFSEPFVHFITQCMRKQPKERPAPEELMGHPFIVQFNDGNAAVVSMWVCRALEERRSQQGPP

[26] = biological target: Myosin light chain kinase 2, skeletal/cardiac muscle (Homo sapiens) (UniProt Q9H1R3); conditions: Compound concentration 1000.0 nM
[27] = biological target: Serine/threonine-protein kinase Nek3 (Homo sapiens) (UniProt P51956); conditions: Compound concentration 1000.0 nM
[28] = biological target: Serine/threonine-protein kinase Nek5 (Homo sapiens) (UniProt Q6P3R8); conditions: Compound concentration 1000.0 nM
[29] = biological target: Serine/threonine-protein kinase N1 (Homo sapiens) (UniProt Q16512); conditions: Compound concentration 1000.0 nM
[30] = biological target: Serine/threonine-protein kinase PLK3 (Homo sapiens) (UniProt Q9H4B4); conditions: Compound concentration 1000.0 nM
[31] = biological target: cGMP-dependent protein kinase 1 (Homo sapiens) (UniProt Q13976); conditions: Compound concentration 1000.0 nM
[32] = system: Proto-oncogene tyrosine-protein kinase receptor Ret (Homo sapiens), P07949 [V804M]; conditions: Compound concentration 1000.0 nM
[33] = biological target: Serine/threonine-protein kinase RIO2 (Homo sapiens) (UniProt Q9BVS4); conditions: Compound concentration 1000.0 nM
[34] = biological target: Proto-oncogene tyrosine-protein kinase ROS (Homo sapiens) (UniProt P08922); conditions: Compound concentration 1000.0 nM
Sequence of Proto-oncogene tyrosine-protein kinase ROS (Homo sapiens) (P08922 whole entry): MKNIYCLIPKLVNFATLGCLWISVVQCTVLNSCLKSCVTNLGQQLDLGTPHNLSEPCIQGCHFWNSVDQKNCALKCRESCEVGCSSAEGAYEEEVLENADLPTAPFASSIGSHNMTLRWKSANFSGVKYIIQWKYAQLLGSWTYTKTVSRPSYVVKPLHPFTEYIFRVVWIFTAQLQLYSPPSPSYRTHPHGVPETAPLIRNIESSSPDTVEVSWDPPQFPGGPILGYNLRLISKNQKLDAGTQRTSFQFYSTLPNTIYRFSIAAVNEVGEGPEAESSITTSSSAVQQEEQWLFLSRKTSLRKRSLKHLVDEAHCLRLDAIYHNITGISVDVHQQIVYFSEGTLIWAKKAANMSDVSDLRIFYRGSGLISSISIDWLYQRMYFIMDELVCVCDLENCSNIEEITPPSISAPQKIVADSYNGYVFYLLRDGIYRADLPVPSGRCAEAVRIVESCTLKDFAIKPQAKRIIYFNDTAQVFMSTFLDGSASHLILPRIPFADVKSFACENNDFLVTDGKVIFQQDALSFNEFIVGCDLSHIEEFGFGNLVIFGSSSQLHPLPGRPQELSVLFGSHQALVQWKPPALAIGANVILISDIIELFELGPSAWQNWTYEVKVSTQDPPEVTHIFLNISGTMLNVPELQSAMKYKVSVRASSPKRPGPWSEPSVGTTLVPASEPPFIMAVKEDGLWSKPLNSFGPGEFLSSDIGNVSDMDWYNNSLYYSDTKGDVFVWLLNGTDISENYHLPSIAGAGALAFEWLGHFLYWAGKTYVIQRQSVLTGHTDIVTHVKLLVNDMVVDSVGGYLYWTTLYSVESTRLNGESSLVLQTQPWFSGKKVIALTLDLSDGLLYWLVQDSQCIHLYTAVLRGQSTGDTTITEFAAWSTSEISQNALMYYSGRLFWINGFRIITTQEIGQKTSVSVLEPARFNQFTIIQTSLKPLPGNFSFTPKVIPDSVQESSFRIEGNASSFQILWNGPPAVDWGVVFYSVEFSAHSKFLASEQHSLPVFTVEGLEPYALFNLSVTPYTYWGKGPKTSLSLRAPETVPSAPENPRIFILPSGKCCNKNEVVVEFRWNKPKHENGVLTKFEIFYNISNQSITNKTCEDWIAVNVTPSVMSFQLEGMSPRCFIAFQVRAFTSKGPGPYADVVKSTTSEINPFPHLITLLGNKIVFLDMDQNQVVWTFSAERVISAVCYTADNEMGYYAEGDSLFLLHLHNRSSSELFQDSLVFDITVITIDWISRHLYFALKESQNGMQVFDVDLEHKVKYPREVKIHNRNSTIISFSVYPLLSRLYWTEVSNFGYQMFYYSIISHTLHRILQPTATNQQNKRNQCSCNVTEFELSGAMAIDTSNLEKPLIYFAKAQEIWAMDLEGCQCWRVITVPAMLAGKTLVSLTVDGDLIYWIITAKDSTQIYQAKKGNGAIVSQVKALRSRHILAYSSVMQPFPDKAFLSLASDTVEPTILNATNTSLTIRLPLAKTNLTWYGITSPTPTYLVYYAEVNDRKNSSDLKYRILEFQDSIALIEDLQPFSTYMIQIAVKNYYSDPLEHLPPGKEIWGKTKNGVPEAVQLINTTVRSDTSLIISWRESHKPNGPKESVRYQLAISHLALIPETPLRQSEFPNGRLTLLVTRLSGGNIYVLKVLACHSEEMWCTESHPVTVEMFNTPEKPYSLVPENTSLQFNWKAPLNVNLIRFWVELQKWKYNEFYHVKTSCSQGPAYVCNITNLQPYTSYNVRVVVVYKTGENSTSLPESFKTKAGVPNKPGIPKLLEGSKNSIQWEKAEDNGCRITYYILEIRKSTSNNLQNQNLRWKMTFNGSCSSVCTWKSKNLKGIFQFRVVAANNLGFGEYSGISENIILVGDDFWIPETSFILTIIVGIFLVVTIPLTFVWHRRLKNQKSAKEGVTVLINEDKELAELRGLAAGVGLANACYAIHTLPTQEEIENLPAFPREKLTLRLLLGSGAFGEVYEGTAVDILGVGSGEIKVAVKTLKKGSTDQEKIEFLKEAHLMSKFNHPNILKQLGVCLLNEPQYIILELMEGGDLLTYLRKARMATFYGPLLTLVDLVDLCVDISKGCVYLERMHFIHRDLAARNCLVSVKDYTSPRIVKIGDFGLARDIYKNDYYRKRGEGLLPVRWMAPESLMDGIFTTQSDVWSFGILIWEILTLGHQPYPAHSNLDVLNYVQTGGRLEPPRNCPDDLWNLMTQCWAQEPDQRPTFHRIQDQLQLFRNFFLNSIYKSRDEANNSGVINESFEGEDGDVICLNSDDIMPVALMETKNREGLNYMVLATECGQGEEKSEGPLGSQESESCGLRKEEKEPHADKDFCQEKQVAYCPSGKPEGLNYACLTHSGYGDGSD

[35] = biological target: Serine/threonine-protein kinase SBK1 (Homo sapiens) (UniProt Q52WX2); conditions: Compound concentration 1000.0 nM
[36] = biological target: Dual specificity testis-specific protein kinase 1 (Homo sapiens) (UniProt Q15569); conditions: Compound concentration 1000.0 nM
[37] = biological target: Serine/threonine-protein kinase tousled-like 2 (Homo sapiens) (UniProt Q86UE8); conditions: Compound concentration 1000.0 nM
[38] = biological target: Dual specificity protein kinase TTK (Homo sapiens) (UniProt P33981); conditions: Compound concentration 1000.0 nM
[39] = biological target: Serine/threonine-protein kinase WNK2 (Homo sapiens) (UniProt Q9Y3S1); conditions: Compound concentration 1000.0 nM
[40] = biological target: Tyrosine-protein kinase ZAP-70 (Homo sapiens) (UniProt P43403); conditions: Compound concentration 1000.0 nM

Sequence of Angiotensin-converting enzyme (Homo sapiens) (P12821 whole entry): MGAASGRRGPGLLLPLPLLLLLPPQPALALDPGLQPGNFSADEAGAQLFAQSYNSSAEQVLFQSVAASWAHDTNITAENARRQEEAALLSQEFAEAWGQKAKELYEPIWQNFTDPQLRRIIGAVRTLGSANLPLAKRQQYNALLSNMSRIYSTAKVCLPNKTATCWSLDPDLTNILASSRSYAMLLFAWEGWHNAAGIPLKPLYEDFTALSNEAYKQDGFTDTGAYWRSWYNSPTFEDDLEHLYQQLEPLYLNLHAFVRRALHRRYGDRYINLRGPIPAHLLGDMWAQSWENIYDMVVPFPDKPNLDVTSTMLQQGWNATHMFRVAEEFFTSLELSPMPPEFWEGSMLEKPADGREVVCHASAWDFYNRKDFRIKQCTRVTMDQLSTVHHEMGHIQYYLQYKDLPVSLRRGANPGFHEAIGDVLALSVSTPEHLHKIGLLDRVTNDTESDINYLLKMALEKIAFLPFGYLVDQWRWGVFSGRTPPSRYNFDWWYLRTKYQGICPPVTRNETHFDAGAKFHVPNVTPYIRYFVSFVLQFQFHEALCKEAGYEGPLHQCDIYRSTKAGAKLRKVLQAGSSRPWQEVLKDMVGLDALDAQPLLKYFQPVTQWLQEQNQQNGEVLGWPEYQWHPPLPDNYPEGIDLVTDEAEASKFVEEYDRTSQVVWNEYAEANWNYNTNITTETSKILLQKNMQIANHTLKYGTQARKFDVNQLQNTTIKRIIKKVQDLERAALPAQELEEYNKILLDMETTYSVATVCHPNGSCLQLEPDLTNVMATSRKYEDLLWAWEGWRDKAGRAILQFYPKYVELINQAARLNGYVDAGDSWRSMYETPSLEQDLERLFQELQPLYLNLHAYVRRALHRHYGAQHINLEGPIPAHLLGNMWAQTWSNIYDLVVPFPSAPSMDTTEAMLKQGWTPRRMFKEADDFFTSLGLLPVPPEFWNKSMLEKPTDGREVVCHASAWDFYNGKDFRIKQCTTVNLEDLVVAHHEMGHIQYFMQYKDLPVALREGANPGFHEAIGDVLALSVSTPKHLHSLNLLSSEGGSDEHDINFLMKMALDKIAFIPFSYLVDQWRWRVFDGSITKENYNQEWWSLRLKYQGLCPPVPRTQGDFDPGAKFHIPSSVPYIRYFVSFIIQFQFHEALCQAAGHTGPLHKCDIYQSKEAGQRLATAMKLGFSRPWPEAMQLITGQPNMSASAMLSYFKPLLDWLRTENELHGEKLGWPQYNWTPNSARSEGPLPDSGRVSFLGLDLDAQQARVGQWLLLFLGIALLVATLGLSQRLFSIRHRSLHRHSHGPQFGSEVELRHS

Compound `CCCOc1ccc([C@H]2[C@H](C(=O)O)[C@@H](c3ccc4c(c3)OCO4)CN2CC(=O)Nc2c(CC)cccc2CC)cc1` [A-192621] has a % Inhibition of Control Values (Mean n=2) [1] of -12.6%, a % Inhibition of Control Specific Binding (Mean n=2) [2] of -6.1% and a % Inhibition of Control Specific Binding (Mean n=2) [3] of -17.9%. The % Inhibition of Control Specific Binding (Mean n=2) [4] was -12.4%, the % Inhibition of Control Specific Binding (Mean n=2) [5] was 39.3% and the % Inhibition of Control Specific Binding (Mean n=2) [6] was -1.1%. It also gave a % Inhibition of Control Specific Binding (Mean n=2) (Rattus norvegicus) of 0.5%, a residual activity [7] of 76% and a residual activity [8] of 68%. The residual activity [9] was 100%, the residual activity [10] was 65% and the residual activity [11] was 89%. For the same compound, the residual activity [12] was 100%, the residual activity [13] was 89% and the residual activity [14] was 84%. The residual activity [15] was 97%, the residual activity [16] was 100% and the residual activity [17] was 100%. It also gave a residual activity [18] of 66%, a residual activity [19] of 92% and a residual activity [20] of 89%. It also gave a residual activity [21] of 74%, a residual activity [22] of 73% and a residual activity [23] of 90%. For the same compound, the residual activity [24] was 100%, the residual activity [25] was 63% and the residual activity [26] was 91%. For the same compound, the residual activity [27] was 69%, the residual activity [28] was 29% and the residual activity [29] was 87%. For the same compound, the residual activity [30] was 83%, the residual activity [31] was 88% and the residual activity [32] was 100%. For the same compound, the residual activity [33] was 71%, the residual activity [34] was 98% and the residual activity [35] was 78%. The residual activity [36] was 89%, the residual activity [37] was 94% and the residual activity [38] was 94%. For the same compound, the residual activity [39] was 58% and the residual activity [40] was 50%.
Compound `CCCOc1ccc([C@@H]2[C@@H](C(=O)O)[C@H](c3ccc4c(c3)OCO4)CN2CC(=O)Nc2c(CC)cccc2CC)cc1` [A-1806262] has a % Inhibition of Control Values (Mean n=2) [1] of -13.7%, a % Inhibition of Control Specific Binding (Mean n=2) [2] of -0.3% and a % Inhibition of Control Specific Binding (Mean n=2) [3] of 4.4%. For the same compound, the % Inhibition of Control Specific Binding (Mean n=2) [4] was -13.4%, the % Inhibition of Control Specific Binding (Mean n=2) [5] was -9.7% and the % Inhibition of Control Specific Binding (Mean n=2) [6] was -0.8%. The % Inhibition of Control Specific Binding (Mean n=2) (Rattus norvegicus) was -2%, the residual activity [7] was 96% and the residual activity [8] was 81%. The residual activity [9] was 100%, the residual activity [10] was 77% and the residual activity [11] was 96%. The residual activity [12] was 87%, the residual activity [13] was 66% and the residual activity [14] was 86%. It also gave a residual activity [15] of 96%, a residual activity [16] of 100% and a residual activity [17] of 99%. The residual activity [18] was 80%, the residual activity [19] was 92% and the residual activity [20] was 88%. For the same compound, the residual activity [21] was 89%, the residual activity [22] was 99% and the residual activity [23] was 97%. The residual activity [24] was 100%, the residual activity [25] was 100% and the residual activity [26] was 93%. The residual activity [27] was 100%, the residual activity [28] was 55% and the residual activity [29] was 100%. For the same compound, the residual activity [30] was 88%, the residual activity [31] was 97% and the residual activity [32] was 94%. It also gave a residual activity [33] of 98%, a residual activity [34] of 90% and a residual activity [35] of 81%. The residual activity [36] was 100%, the residual activity [37] was 100% and the residual activity [38] was 100%. For the same compound, the residual activity [39] was 88% and the residual activity [40] was 94%.
